According to ChEMBL document CHEMBL5226385, “The Antiangiogenic and Antitumor Effects of Scoparasin B in Non-Small-Cell Lung Cancer” (J Nat Prod, 2023):
Activity calls are given as the source filed them. No cut-off for these calls is given here.

Experiments:
NCI-H1299 [1] = assay: Cytotoxicity against human NCI-H1299 cells assessed as reduction in cell viability at 25 nM incubated for 48 hrs by CCK8 assay; type: toxicity, cell-based; details: nci-h1299, 48 h, 0.025 µM
HUVEC [2] = assay: Antiangiogenic activity against human HUVEC cells assessed as inhibition of capillary tube-like structure formation at 15 nM incubated for 6 hrs by Matrigel based analysis; type: functional; set-up: scale not given: the % may be the effect or the level left
HMEC-1 [3] = assay: Antiangiogenic activity against human HMEC-1 cells assessed as inhibition of cell migration measured after 8 hrs by scratch wound healing assay; type: functional, cell-based; details: dose 5-15 nM
HUVEC [4] = assay: Antiangiogenic activity against human HUVEC cells assessed as inhibition of capillary tube-like structure formation incubated for 6 hrs by Matrigel based analysis; type: functional, cell-based; details: dose 5-20 nM
NCI-H1299 [5] = assay: Antitumor activity against human NCI-H1299 cells xenografted in BALB/c nude mouse assessed as tumor volume at 1.5 mg/kg, ip administered every other day for 20 days by vernier caliper analysis (reference value: 1206.46 +/-332.44 mm3); type: functional; details: time 20 day
HMEC-1 [6] = assay: Antiangiogenic activity against human HMEC-1 cells assessed as inhibition of cell invasion measured after 24 hrs by Transwell invasion assay; type: functional, cell-based; details: dose 5-15 nM
NCI-H1299 [7] = assay: Antitumor activity against human NCI-H1299 cells xenografted in BALB/c nude mouse assessed as reduction in Ki67 expression in tumor at 0.75 to 1.5 mg/kg, ip administered every other day for 20 days by immunohistochemical analysis; type: functional, organism-based; details: dose 0.75-1.5 mg/kg, time 20.0 day
HMEC-1 [8] = assay: Antiangiogenic activity against human HMEC-1 cells assessed as inhibition of capillary tube-like structure formation incubated for 6 hrs by Matrigel based analysis; type: functional, cell-based; details: dose 5-20 nM
[9] = target: Vascular endothelial growth factor receptor 2 (Homo sapiens) (UniProt P35968); assay: Inhibition of VEGF-A-mediated VEGFR2 signaling pathway in human HMEC-1 cells assessed as reduction in VEGFR2 phosphorylation at Tyr1175 residue at 5 to 15 nM incubated for 36 hrs by western blot analysis; type: cell-based; details: dose 5-15 nM
NCI-H1299 [10] = assay: Downregulation of Vimentin mRNA expression in human NCI-H1299 cells at 5 to 15 nM incubated for 24 hrs by qPCR analysis; type: functional, cell-based; details: dose 5-15 nM
[11] = Toxicity against BALB/c nude mouse xenografted with human NCI-H1299 cells assessed as morphological changes in kidneys at 0.75 to 1.5 mg/kg, ip administered every other day for 20 days by Hematoxylin and eosin staining based inverted microscopic analysis; type: organism-based; details: in vivo, 480 h, dose 0.75-1.5 mg/kg, time 20 day
Gallus gallus = organism: Gallus gallus; assay: Ex vivo antiangiogenesis activity in chicken embryo chorioallantonic membrane assessed as reduction in microvessel density at 5 to 20 nM measured after 48 hrs by stereomicroscopic analysis; type: functional, organism-based; details: Chorioallantoic membrane, dose 5-20 nM
NCI-H1299 [12] = assay: Inhibition of vasculogenic-mimicry in human NCI-H1299 cells assessed as inhibition of cell invasion at 5 to 15 nM measured after 24 hrs by Transwell invasion assay; type: functional, cell-based; details: dose 5-15 nM
HUVEC [13] = assay: Antiangiogenic activity against human HUVEC cells assessed as inhibition of cell invasion measured after 24 hrs by Transwell invasion assay; type: functional, cell-based; details: dose 5-15 nM
HBVP = assay: Inhibition of cell adhesion in human HBVP cells assessed as reduction in cell adhesion number at 5 to 15 nM pretreated with compound for 24 hrs followed by culturing for 1 hr by crystal violet staining based inverted microscopic analysis; type: functional; details: dose 5-15 nM, time 25.0 hrs
HUVEC [14] = assay: Antiangiogenic activity against human HUVEC cells assessed as inhibition of cell migration measured after 24 hrs by Transwell migration assay; type: functional, cell-based; details: dose 5-15 nM
NCI-H1299 [15] = assay: Antitumor activity against human NCI-H1299 cells xenografted in BALB/c nude mouse assessed as tumor volume at 0.75 mg/kg, ip administered every other day for 20 days by vernier caliper analysis (reference value: 1206.46 +/-332.44 mm3); type: functional; details: time 20 day
[16] = target: Vascular endothelial growth factor receptor 2 (Homo sapiens) (UniProt P35968); assay: Inhibition of VEGF-A-mediated VEGFR2 signaling pathway in human HMEC-1 cells assessed as reduction in Akt phosphorylation at Thr308 residue at 5 to 15 nM incubated for 36 hrs by western blot analysis; type: cell-based; details: dose 5-15 nM
[17] = Toxicity against BALB/c nude mouse xenografted with human NCI-H1299 cells assessed as morphological changes in liver at 0.75 to 1.5 mg/kg, ip administered every other day for 20 days by Hematoxylin and eosin staining based inverted microscopic analysis; type: organism-based; details: in vivo, 480 h, dose 0.75-1.5 mg/kg, time 20 day
NCI-H1299 [18] = assay: Downregulation of N-Cadherin protein expression in human NCI-H1299 cells at 5 to 15 nM incubated for 24 hrs by western blot analysis; type: functional, cell-based; details: dose 5-15 nM
NCI-H1299 [19] = assay: Inhibition of vasculogenic-mimicry in human NCI-H1299 cells assessed as inhibition of capillary-like network formation by measuring reduction in tube number and vascular branches at 5 to 15 nM measured after 6 hrs by Matrigel-based analysis; type: functional, cell-based; details: dose 5-15 nM
Mus musculus [20] = assay: Inhibition of vasculogenic-mimicry in BALB/c nude mouse xenografted with human NCI-H1299 cells assessed as reduction in pericyte coverage around CD31-positive endothelial blood vessels at 0.75 to 1.5 mg/kg, ip administered every other day for […] by immunofluorescence analysis; type: functional, organism-based; details: dose 0.75-1.5 mg/kg
Mus musculus [21] = assay: Downregulation of VEGF-A protein expression in tumor of BALB/c nude mouse xenografted with human NCI-H1299 cells at 0.75 to 1.5 mg/kg, ip administered every other day for 20 days by immunohistochemical analysis; type: functional, organism-based; details: dose 0.75-1.5 mg/kg, time 20.0 day
HMEC-1 [22] = assay: Downregulation of VEGF-A protein expression in human HMEC-1 cells at 5 to 15 nM incubated for 36 hrs by western blot analysis; type: functional, cell-based; details: dose 5-15 nM
[23] = Toxicity against BALB/c nude mouse xenografted with human NCI-H1299 cells assessed as morphological changes in heart at 0.75 to 1.5 mg/kg, ip administered every other day for 20 days by Hematoxylin and eosin staining based inverted microscopic analysis; type: organism-based; details: in vivo, 480 h, dose 0.75-1.5 mg/kg, time 20 day
NCI-H1299 [24] = assay: Downregulation of MMP9 mRNA expression in human NCI-H1299 cells at 5 to 15 nM incubated for 24 hrs by qPCR analysis; type: functional, cell-based; details: dose 5-15 nM
HMEC-1 [25] = assay: Downregulation of VEGFR2 protein expression in human HMEC-1 cells at 5 to 15 nM incubated for 36 hrs by western blot analysis; type: functional, cell-based; details: dose 5-15 nM
[26] = target: Vascular endothelial growth factor receptor 2 (Homo sapiens) (UniProt P35968); assay: Inhibition of VEGF-A-mediated VEGFR2 signaling pathway in human HUVEC cells assessed as reduction in Akt phosphorylation at Thr308 residue at 5 to 15 nM incubated for 36 hrs by western blot analysis; type: cell-based; details: dose 5-15 nM
NCI-H1299 [27] = assay: Antitumor activity against human NCI-H1299 cells xenografted in BALB/c nude mouse assessed as increase in tumor necrotic areas at 0.75 to 1.5 mg/kg, ip administered every other day for 20 days by Hematoxylin and eosin staining based inverted microscopic analysis; type: functional, organism-based; details: dose 0.75-1.5 mg/kg, time 20.0 day
NCI-H1299 [28] = assay: Downregulation of Vimentin protein expression in human NCI-H1299 cells at 5 to 15 nM incubated for 24 hrs by western blot analysis; type: functional, cell-based; details: dose 5-15 nM
HMEC-1 [29] = assay: Antiangiogenic activity against human HMEC-1 cells assessed as inhibition of cell migration measured after 24 hrs by Transwell migration assay; type: functional, cell-based; details: dose 5-15 nM
HUVEC [30] = assay: Inhibition of VEGF-A secretion in human HUVEC cells incubated for 36 hrs by ELISA; type: functional, cell-based; details: dose 5-15 nM
NCI-H1299 [31] = assay: Upregulation of E-Cadherin mRNA expression in human NCI-H1299 cells at 5 to 15 nM incubated for 24 hrs by qPCR analysis; type: functional, cell-based; details: dose 5-15 nM

Vascular endothelial growth factor receptor 2 (Homo sapiens), sequence (P35968 whole entry): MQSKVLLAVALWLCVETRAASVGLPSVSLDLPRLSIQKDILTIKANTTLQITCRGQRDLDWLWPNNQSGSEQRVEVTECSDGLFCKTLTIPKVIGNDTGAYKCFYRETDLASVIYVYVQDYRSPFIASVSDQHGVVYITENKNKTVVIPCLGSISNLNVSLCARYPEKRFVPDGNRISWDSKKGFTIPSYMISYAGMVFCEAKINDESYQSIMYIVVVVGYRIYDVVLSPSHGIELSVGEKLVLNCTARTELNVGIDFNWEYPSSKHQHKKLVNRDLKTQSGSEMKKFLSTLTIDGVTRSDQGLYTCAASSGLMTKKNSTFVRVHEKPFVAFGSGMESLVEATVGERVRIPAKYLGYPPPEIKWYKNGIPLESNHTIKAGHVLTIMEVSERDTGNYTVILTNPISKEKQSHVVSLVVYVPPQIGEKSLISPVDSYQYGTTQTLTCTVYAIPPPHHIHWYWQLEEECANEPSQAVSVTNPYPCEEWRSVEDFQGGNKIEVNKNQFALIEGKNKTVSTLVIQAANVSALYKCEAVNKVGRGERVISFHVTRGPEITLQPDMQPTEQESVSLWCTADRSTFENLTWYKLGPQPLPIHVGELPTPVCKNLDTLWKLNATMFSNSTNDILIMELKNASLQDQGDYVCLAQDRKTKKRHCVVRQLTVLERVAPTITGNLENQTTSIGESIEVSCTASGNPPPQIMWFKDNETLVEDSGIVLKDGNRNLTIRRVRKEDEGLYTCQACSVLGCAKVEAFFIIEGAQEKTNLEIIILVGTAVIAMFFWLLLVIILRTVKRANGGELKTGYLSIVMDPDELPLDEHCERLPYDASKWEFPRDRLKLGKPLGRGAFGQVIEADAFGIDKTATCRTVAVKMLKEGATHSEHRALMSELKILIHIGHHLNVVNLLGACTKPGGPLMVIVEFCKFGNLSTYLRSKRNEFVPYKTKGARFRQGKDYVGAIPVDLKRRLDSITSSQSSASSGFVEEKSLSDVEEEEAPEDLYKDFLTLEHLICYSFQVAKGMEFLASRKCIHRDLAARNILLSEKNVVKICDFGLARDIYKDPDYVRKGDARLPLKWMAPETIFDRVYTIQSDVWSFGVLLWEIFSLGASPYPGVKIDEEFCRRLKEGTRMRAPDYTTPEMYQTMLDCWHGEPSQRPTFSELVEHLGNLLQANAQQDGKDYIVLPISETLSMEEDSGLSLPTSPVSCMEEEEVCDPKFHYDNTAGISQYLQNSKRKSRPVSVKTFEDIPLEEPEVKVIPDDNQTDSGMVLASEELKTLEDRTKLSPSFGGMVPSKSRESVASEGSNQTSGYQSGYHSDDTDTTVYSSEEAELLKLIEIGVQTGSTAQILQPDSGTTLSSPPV

COc1ccc(C[C@@H]2NC(=O)[C@@]34OC(=O)O/C=C/[C@@](C)(O)C(=O)[C@@H](C)C/C=C/[C@H]3[C@H](O)[C@](C)(O)[C@@H](C)[C@@H]24)cc1 [SCOPARASIN B]
Activity (NCI-H1299 [1]): Non-Toxic | Activity (HUVEC [2]): 100% | Activity (HMEC-1 [3]): Dose-Dependent Effect | Activity (HUVEC [4]): Dose-Dependent Effect | Activity (NCI-H1299 [5]): 190.09 mm3 | Activity (HMEC-1 [6]): Dose-Dependent Effect | Activity (NCI-H1299 [7]): Active | Activity (HMEC-1 [8]): Dose-Dependent Effect | inhibition [9]: Active | inhibition (NCI-H1299 [10]): Active | Activity [11]: Non-Toxic | Activity (Gallus gallus): Active | inhibition (NCI-H1299 [12]): Active | Activity (HUVEC [13]): Dose-Dependent Effect | inhibition (HBVP): Active | Activity (HUVEC [14]): Dose-Dependent Effect | Activity (NCI-H1299 [15]): 559.86 mm3 | inhibition [16]: Active | Activity [17]: Non-Toxic | inhibition (NCI-H1299 [18]): Active | inhibition (NCI-H1299 [19]): Active | inhibition (Mus musculus [20]): Active | inhibition (Mus musculus [21]): Active | inhibition (HMEC-1 [22]): Active | Activity [23]: Non-Toxic | inhibition (NCI-H1299 [24]): Active | inhibition (HMEC-1 [25]): inactive | inhibition [26]: Active | Activity (NCI-H1299 [27]): Active | inhibition (NCI-H1299 [28]): Active | Activity (HMEC-1 [29]): Dose-Dependent Effect | inhibition (HUVEC [30]): Dose-Dependent Effect | Activity (NCI-H1299 [31]): Active
